This note sets out measurements from patent US9738607B2, “Scalable process for the preparation of Sorafenib tosylate ethanol solvate and Sorafenib tosylate form III” (F.I.S.—FABBRICA ITALIANA SINTETICI S.P.A, priority 2015, dated 2017).

The nature of series [1]: Stability studies of Sorafenib tosylate form III (humidity/temperature storage). Conditions: form III obtained from methanol solvate. The format is physicochemical. On the procedure:
Stability studies of the free Sorafenib tosylate form III were already performed. These studies indicate that form III remained stable 3 months under accelerated conditions of ICH guideline (40° C.-70% RH) and less than 7 months at RT under 94% RH, while it remained stable at least 7 month at RT under 60% RH.
As the stability study of Sorafenib tosylate form III was performed with Sorafenib tosylate form III obtained from Sorafenib tosylate methanol solvate, only a minor difference in behavior could be possible with this new solid.

The nature of series [2]: Stability study of Sorafenib hemi-tosylate monohydrate under four humidity/temperature conditions, XRPD. The format is physicochemical. On the procedure:
Four different humidity/temperature conditions were selected for this study: • Humidity (60% RH) at room temperature, • High humidity (94% RH) at room temperature, • Accelerated conditions of ICH guidelines (40° C.-70% RH), • 80° C. under vacuum.
Karl-Fischer and DSC/TGA analyses confirmed that Sorafenib hemi-tosylate is a monohydrate (water content 3.9% for KF and 2.7% for TGA—3.1% calc. for a monohydrate). This form was previously characterized in WO2009/092070 but, as Karl-Fischer and TGA were not performed, the presence of water in this crystalline form was not mentioned. […] However, at 80° C. under vacuum, traces of SORAFENIB free base were detected after almost three months.

Consider `CNC(=O)c1cc(Oc2ccc(NC(=O)Nc3ccc(Cl)c(C(F)(F)F)c3)cc2)ccn1.Cc1ccc(S(=O)(=O)O)cc1` [Sorafenib tosylate form III, 4-[4-({[4-chloro-3-(trifluoromethyl)phenyl]carbamoyl}amino)phenoxy]-N-methylpyridine-2-carboxamide 4-methylbenzenesulfonate (1:1)], for which the “time form III remained stable” value in series [1] (RT under 60% RH) is “at least 7 month”; in series [1] (RT under 94% RH), “less than 7 months”; in series [1] (accelerated conditions of ICH guideline (40° C.-70% RH)), 3 months.
For `CNC(=O)c1cc(Oc2ccc(NC(=O)Nc3ccc(Cl)c(C(F)(F)F)c3)cc2)ccn1.Cc1ccc(S(=O)(=O)O)cc1` [Sorafenib hemi-tosylate], the time remained stable entry in series [2] (60% RH at room temperature), in series [2] (70% RH at 40° C.) and in series [2] (94% RH at room temperature) was “at least four” each time. For the same compound, the “crystalline changes by XRPD” value in series [2] (after 88 days at 80° C. under vacuum) is recorded as “traces of Sorafenib free base were observed”; in series [2] (after 119 days at 60% RH at room temperature), “No crystalline changes were detected”; in series [2] (after 119 days at 70% RH at 40° C.), “No crystalline changes were detected”; in series [2] (after 119 days at 94% RH at room temperature), “No crystalline changes were detected”.
